Experimental data published in publication PMC10778976, “BAY-3827 and SBI-0206965: Potent AMPK Inhibitors That Paradoxically Increase Thr172 Phosphorylation” (International Journal of Molecular Sciences, 2023).
pEC50, pIC50: −log10 of the molar value. Values joined by “and” are separate entries in the source; they are usually repeats but may differ in a detail not shown here. Equal values may be shown once.

Experiments:
[1] = target: T1, LKB1 (human LKB1:STRADα:MO25α complex) (Homo sapiens, UniProt Q15831); assay: LKB1 activity using LKBtide peptide; assay type: biochemical; details: LKBtide substrate
T1 construct: made in house
T1 sequence (Q15831 1-433): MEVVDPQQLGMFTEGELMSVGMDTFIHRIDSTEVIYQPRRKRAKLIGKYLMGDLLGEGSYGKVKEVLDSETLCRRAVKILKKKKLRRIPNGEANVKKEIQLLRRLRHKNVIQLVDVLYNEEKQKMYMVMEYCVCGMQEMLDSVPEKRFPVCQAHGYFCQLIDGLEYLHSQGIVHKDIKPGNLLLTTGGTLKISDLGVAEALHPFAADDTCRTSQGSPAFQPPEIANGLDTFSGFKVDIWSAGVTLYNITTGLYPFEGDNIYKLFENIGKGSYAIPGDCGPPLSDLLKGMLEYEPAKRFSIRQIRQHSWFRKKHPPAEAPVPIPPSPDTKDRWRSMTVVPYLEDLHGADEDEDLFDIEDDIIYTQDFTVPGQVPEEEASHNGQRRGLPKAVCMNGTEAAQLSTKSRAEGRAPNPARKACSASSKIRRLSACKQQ
T1 sequence (Q7RTN6 1-431 partner): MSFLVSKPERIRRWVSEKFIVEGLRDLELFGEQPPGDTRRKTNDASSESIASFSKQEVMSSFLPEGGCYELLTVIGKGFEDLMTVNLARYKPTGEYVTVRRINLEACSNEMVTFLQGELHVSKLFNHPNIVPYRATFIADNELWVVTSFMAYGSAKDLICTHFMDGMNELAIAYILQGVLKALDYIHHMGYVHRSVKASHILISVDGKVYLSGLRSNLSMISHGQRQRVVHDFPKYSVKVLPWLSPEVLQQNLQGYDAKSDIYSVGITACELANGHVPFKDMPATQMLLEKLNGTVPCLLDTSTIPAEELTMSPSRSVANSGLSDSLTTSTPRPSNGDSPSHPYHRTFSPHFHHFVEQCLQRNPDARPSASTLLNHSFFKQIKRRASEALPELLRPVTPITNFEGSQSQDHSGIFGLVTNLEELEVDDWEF
T1 sequence (Q9Y376 1-341 partner): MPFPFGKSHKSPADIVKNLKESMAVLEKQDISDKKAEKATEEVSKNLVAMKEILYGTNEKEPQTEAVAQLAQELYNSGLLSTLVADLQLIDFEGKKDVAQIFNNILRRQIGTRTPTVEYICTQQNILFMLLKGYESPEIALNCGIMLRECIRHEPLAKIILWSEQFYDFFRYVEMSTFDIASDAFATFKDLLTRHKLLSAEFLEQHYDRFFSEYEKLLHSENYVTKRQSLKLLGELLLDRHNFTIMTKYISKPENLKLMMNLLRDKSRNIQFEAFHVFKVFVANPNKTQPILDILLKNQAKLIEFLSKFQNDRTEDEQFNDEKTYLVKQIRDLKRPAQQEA
Method: (§1) To directly determine LKB1 activity, kinase assays were performed in the presence or absence of the indicated concentration of BAY-3827 or SBI-0206965 as for AMPK, except that LKBtide was used as a peptide substrate. PPM1A activity was determined using p-nitrophenyl phosphate (pNPP) as a substrate. PPM1A (5 µg) was incubated with 50 mM pNPP and 50 mM MgCl2 in Hepes buffer in the presence of a vehicle or the indicated concentration of BAY-3827 or SBI-0206965 for 10 min at 30 °C. The reaction was quenched by the addition of 1 mL of 0.5 M EDTA and the amount of product, p-nitrophenol, determined by measuring absorbance at 405 nm.

PPM1A = test system: T2, PPM1A; assay: PPM1A activity using p-nitrophenyl phosphate; assay type: biochemical; details: p-nitrophenyl phosphate substrate, concentrations as in Figure 5A
T2 construct: made in house
Method: as §1

[2] = test system: native AMPK purified from rat liver; assay: Cell-free kinase assay of purified rat liver AMPK; assay type: biochemical; details: ATP 200 µM; for pIC50: read-out: IC50, inhibition of rat liver AMPK complexes
Source text: AMPK assays measured the transfer of radioactivity from labelled ATP to a peptide substrate, which was separated from unreacted ATP by binding to P81 paper. This assay was described previously, except that we used [γ-^33P]ATP rather than [γ-^32P]ATP. The peptide substrate was the AMARA peptide in all experiments other than one, which analyzed allosteric activation by AMP (Figure 2A), when, for technical reasons, the SAMS peptide was used instead. […] After each wash, the pellet was recovered via centrifugation (16,000× g, 3 min) and then resuspended. The final resuspended pellets from each biological replicate were divided into two aliquots (40 µg lysate protein) to provide technical replicates and assayed as above.

AMPK in U2OS cells = assay: AMPK activity in anti-α1/-α2 immunoprecipitates from treated U2OS cells; assay type: cell-based, human
Source text: T-Rex U2OS cells carrying a Flp Recombinase Target (FRT) site were generated as described previously and grown in Dulbecco’s Modified Eagle’s Medium (DMEM) supplemented with 10% (v/v) FBS and 1% (v/v) penicillin/streptomycin.
Cells were lysed rapidly in situ on culture plates using ice-cold lysis medium containing phosphatase inhibitors, as described previously.
(§2) AMPK assays measured the transfer of radioactivity from labelled ATP to a peptide substrate, which was separated from unreacted ATP by binding to P81 paper. This assay was described previously, except that we used [γ-^33P]ATP rather than [γ-^32P]ATP. The peptide substrate was the AMARA peptide in all experiments other than one, which analyzed allosteric activation by AMP (Figure 2A), when, for technical reasons, the SAMS peptide was used instead. With purified preparations of AMPK, it was assayed in solution, but for assays in cell lysates (Figure 3D and Figure 4D), it was first immunoprecipitated using a mixture of anti-α1 and -α2 antibodies and assayed in resuspended immunoprecipitates. After the initial immunoprecipitation of lysate containing 80 µg of protein, the pellets were washed twice with 1 mL of high salt IP buffer (50 mM Tris-HCL, pH 7.4 at 4 °C, 1 M NaCl, 1 mM EDTA, 1 mM EGTA, 50 mM NaF, 5 mM Na pyrophosphate, 1 mM dithiothreitol, 0.1% (v/v) Triton X-100) and twice with 1 mL of low salt IP buffer (as above but only 150 mM NaCl), followed by a final wash in 1 mL of assay buffer (50 mM Na Hepes, pH7.4, 150 mM NaCl, 1 mM dithiothreitol, 0.02% (v/v) Brij-35). After each wash, the pellet was recovered via centrifugation (16,000× g, 3 min) and then resuspended. The final resuspended pellets from each biological replicate were divided into two aliquots (40 µg lysate protein) to provide technical replicates and assayed as above.

human α1β1γ1 complex = human α1β1γ1 complex (Homo sapiens, UniProt Q13131); assay: Cell-free kinase assay of bacterially expressed human α1β1γ1 complex phosphorylated on Thr172 by CaMKK2; assay type: biochemical; details: ATP 200 µM; read-out: IC50, inhibition of human α1β1γ1 complex
Sequence of human α1β1γ1 complex (Q13131 whole entry): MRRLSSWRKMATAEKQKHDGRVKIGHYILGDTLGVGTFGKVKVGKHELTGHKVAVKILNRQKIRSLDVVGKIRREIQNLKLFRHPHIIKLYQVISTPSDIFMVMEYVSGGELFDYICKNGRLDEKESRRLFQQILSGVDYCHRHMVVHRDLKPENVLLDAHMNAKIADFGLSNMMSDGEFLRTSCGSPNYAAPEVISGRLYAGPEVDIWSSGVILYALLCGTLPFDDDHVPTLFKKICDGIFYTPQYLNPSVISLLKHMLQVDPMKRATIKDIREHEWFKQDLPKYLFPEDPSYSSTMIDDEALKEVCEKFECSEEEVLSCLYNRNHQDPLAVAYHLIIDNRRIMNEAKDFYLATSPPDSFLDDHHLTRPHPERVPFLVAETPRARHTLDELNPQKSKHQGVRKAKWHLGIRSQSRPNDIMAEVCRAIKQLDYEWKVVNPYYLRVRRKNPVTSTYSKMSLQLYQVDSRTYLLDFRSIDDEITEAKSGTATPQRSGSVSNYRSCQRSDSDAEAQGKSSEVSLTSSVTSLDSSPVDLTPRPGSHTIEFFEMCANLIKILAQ
Sequence of human α1β1γ1 complex (P54619 whole entry, further chain): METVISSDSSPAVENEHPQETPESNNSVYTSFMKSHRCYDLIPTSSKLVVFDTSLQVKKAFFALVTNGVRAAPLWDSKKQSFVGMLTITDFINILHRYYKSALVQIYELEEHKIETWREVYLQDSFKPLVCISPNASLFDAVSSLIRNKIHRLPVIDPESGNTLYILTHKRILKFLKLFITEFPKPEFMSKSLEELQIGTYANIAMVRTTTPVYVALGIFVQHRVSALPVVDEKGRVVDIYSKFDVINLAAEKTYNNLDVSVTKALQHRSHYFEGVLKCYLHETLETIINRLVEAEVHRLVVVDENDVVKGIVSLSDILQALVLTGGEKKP
Sequence of human α1β1γ1 complex (Q9Y478 2-270, further chain): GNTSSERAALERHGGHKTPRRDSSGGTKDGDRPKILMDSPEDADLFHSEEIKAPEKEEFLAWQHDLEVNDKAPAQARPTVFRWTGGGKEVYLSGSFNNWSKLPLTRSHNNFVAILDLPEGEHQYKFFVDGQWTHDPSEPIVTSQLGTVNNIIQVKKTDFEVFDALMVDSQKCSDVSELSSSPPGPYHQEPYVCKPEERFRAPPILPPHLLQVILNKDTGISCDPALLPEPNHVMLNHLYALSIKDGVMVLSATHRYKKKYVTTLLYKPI
Source text: as §2, with “The final resuspended pellets from each biological replicate were divided into two aliquots (40 µg lysate protein) to provide technical replicates and assayed as above.” left out

| Structure (SMILES) | effect on LKB1 activity ([1]; all concentrations used) | effect on activity of PPM1A (PPM1A) | fold more potent than SBI-0206965 against purified rat liver AMPK [2] | pIC50 [2] | pEC50 (AMPK in U2OS cells; Homo sapiens, U2OS cells treated with inhibitor and MK-8722, read-out: EC50, activation of AMPK activity in immunoprecipitates) | Activation of AMPK activity in immunoprecipitates (AMPK in U2OS cells; U2OS cells treated with inhibitor and MK-8722) | pIC50 (human α1β1γ1 complex) | pIC50 ([1]; read-out: IC50, inhibition of LKB1 activity) | effect on AMPK activity in immunoprecipitates (AMPK in U2OS cells; U2OS cells, MK-8722 and increasing concentrations of inhibitor) |
| --- | --- | --- | --- | --- | --- | --- | --- | --- | --- |
| CCc1ccccc1C(=O)Nc1n[nH]c2c(C)c(F)c(C3C(C#N)=C(C)N(C)C(C)=C3C#N)cc12 [BAY-3827] | no inhibition | Lack of effect | > 20 fold | 7.77 | 7.08 | 2.5 fold | 7.60 | – | – |
| CNC(=O)c1ccccc1Oc1nc(Nc2cc(OC)c(OC)c(OC)c2)ncc1Br [SBI-0206965] | – | Lack of effect | – | 6.44 | – | – | 6.61 and 6.60 | 5.21 | increased with a similar biphasic pattern |
